Assay results as given in ChEMBL document CHEMBL1139105, “1,2,3-Thiadiazole substituted pyrazolones as potent KDR/VEGFR-2 kinase inhibitors” (Bioorg Med Chem Lett, 2007).

Key:
[1] = molecular target: High affinity nerve growth factor receptor (Homo sapiens, UniProt P04629); test: Inhibition of TRK A
[2] = molecular target: Vascular endothelial growth factor receptor 1 (Homo sapiens, UniProt P17948); test: Inhibition of VEGFR1
[3] = Volume of distribution in rat at 1 mg/kg, iv; assay type: ADME, organism-based; parameters: dose 1 mg/kg, route intravenous; details: in vivo, read-out: Vdss
[4] = molecular target: Vascular endothelial growth factor receptor 3 (Homo sapiens, UniProt P35916); test: Inhibition of VEGFR3
Angiopoietin-1 receptor = Angiopoietin-1 receptor (Homo sapiens, UniProt Q02763); test: Inhibition of Tie2
[5] = (§1) AUC in rat at 1 mg/kg, iv; assay type: ADME, organism-based, Plasma; parameters: dose 1 mg/kg, route intravenous; details: plasma
[6] = molecular target: Proto-oncogene tyrosine-protein kinase Src (Homo sapiens, UniProt P12931); test: Inhibition of SRC
[7] = Half life in rat at 1 mg/kg, iv; assay type: ADME, organism-based; parameters: dose 1 mg/kg, route intravenous; details: in vivo
[8] = Clearance in rat at 1 mg/kg, iv; assay type: ADME, organism-based; parameters: dose 1 mg/kg, route intravenous; details: in vivo
[9] = molecular target: Vascular endothelial growth factor receptor 2 (Homo sapiens, UniProt P35968); test: Inhibition of human cytoplasmic VEGFR2 expressed in baculovirus after 15 mins by time resolved fluorescence assay
[10] = (§2) Oral bioavailability in rat at 5 mg/kg; assay type: ADME, organism-based; details: in vivo
[11] = Cmax in rat at 5 mg/kg, po; assay type: ADME, organism-based; parameters: dose 5 mg/kg, route oral; details: in vivo
[12] = Half life in rat at 5 mg/kg, po; assay type: ADME, organism-based; parameters: dose 5 mg/kg, route oral; details: in vivo
[13] = (§3) AUC in rat at 5 mg/kg, po; assay type: ADME, organism-based, Plasma; parameters: dose 5 mg/kg, route oral; details: plasma
Rattus norvegicus [14] = test: as §2; assay type: ADME, organism-based; details: in vivo
Rattus norvegicus [15] = test: as §3; assay type: ADME, organism-based, Plasma; parameters: dose 5 mg/kg, route oral; details: in vivo
Rattus norvegicus [16] = test: as §1; assay type: ADME, organism-based, Plasma; parameters: dose 1 mg/kg, route intravenous; details: in vivo

Sequence of Vascular endothelial growth factor receptor 2 (P35968 whole entry): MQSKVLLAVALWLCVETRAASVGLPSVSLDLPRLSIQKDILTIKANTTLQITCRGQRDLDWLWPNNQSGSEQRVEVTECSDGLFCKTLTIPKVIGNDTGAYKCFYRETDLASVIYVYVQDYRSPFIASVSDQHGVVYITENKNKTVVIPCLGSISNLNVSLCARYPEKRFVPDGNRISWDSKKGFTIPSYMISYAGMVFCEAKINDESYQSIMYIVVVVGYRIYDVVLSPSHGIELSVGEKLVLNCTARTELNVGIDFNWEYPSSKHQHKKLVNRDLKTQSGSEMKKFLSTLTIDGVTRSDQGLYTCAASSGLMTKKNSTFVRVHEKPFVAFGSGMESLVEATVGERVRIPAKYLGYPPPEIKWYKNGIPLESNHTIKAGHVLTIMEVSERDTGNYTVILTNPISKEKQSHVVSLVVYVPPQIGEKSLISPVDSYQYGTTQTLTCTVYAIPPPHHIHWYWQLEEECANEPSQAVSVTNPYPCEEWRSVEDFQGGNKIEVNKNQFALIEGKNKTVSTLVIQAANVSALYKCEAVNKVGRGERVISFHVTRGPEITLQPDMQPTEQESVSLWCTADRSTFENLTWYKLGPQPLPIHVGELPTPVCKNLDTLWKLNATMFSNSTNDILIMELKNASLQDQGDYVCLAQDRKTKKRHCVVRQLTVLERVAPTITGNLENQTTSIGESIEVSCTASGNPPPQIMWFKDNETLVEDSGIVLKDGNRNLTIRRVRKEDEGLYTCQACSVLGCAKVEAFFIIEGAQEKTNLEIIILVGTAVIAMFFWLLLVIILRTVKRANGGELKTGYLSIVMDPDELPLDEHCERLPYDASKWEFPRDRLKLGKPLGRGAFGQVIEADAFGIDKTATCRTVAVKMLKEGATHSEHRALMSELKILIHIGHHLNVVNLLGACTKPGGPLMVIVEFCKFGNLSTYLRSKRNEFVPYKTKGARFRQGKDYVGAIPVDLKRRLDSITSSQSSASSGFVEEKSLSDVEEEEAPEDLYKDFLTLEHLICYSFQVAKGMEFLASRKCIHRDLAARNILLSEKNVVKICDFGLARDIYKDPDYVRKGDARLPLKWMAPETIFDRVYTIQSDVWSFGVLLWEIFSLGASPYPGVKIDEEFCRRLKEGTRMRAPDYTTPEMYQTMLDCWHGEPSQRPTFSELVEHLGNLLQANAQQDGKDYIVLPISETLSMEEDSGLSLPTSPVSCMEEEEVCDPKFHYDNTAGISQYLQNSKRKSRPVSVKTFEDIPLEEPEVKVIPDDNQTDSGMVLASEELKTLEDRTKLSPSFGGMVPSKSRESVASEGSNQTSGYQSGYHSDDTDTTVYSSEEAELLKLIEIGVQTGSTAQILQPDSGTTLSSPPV
Sequence of Vascular endothelial growth factor receptor 1 (P17948 whole entry): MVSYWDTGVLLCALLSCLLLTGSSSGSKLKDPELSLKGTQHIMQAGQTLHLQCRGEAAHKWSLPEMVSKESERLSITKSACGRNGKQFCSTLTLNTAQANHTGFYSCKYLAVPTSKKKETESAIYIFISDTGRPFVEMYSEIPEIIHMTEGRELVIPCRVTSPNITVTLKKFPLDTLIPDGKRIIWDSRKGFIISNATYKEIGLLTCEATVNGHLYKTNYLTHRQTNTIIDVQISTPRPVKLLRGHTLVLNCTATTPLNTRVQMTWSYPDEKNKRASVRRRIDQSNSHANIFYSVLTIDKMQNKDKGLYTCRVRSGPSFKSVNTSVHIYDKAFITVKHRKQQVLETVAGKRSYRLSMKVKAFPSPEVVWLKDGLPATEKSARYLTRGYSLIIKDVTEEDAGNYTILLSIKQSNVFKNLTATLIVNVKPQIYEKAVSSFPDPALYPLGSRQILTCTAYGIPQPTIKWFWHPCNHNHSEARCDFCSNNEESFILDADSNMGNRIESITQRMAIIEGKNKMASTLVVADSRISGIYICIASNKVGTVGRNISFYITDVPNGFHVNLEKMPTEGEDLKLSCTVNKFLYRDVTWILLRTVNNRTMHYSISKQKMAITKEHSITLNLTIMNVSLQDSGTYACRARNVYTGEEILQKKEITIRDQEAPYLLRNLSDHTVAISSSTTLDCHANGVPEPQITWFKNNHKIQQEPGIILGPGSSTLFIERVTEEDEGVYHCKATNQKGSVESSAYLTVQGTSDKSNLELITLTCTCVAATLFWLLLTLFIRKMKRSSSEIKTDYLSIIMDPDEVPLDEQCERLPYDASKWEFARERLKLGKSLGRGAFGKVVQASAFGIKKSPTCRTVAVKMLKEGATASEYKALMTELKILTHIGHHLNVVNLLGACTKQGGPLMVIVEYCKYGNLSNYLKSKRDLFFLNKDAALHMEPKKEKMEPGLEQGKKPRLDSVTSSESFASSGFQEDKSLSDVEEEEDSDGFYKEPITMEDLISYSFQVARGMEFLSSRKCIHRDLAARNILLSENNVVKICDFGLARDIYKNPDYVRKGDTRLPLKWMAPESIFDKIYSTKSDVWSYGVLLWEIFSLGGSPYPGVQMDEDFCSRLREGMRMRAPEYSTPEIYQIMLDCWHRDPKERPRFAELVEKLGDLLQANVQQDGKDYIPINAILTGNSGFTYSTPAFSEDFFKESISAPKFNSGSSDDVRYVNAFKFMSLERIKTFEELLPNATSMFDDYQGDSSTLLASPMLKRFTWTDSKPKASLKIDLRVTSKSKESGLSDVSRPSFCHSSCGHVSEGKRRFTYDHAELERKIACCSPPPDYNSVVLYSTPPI
Sequence of Proto-oncogene tyrosine-protein kinase Src (P12931 2-536 limits assumed): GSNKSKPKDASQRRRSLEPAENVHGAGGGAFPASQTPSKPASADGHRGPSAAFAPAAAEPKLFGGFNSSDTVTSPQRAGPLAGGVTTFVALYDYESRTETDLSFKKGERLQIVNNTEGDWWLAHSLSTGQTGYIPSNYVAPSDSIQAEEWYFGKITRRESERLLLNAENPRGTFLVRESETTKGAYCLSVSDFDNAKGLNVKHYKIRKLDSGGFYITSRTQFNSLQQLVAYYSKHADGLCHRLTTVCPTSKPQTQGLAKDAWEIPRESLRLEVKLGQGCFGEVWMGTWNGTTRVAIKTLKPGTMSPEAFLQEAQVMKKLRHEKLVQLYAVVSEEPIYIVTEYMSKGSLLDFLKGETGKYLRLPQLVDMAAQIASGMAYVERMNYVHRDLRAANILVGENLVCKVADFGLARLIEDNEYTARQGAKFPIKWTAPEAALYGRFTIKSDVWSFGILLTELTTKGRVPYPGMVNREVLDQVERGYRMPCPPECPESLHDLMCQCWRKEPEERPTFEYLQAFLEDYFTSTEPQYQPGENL
Sequence of Vascular endothelial growth factor receptor 3 (P35916 whole entry): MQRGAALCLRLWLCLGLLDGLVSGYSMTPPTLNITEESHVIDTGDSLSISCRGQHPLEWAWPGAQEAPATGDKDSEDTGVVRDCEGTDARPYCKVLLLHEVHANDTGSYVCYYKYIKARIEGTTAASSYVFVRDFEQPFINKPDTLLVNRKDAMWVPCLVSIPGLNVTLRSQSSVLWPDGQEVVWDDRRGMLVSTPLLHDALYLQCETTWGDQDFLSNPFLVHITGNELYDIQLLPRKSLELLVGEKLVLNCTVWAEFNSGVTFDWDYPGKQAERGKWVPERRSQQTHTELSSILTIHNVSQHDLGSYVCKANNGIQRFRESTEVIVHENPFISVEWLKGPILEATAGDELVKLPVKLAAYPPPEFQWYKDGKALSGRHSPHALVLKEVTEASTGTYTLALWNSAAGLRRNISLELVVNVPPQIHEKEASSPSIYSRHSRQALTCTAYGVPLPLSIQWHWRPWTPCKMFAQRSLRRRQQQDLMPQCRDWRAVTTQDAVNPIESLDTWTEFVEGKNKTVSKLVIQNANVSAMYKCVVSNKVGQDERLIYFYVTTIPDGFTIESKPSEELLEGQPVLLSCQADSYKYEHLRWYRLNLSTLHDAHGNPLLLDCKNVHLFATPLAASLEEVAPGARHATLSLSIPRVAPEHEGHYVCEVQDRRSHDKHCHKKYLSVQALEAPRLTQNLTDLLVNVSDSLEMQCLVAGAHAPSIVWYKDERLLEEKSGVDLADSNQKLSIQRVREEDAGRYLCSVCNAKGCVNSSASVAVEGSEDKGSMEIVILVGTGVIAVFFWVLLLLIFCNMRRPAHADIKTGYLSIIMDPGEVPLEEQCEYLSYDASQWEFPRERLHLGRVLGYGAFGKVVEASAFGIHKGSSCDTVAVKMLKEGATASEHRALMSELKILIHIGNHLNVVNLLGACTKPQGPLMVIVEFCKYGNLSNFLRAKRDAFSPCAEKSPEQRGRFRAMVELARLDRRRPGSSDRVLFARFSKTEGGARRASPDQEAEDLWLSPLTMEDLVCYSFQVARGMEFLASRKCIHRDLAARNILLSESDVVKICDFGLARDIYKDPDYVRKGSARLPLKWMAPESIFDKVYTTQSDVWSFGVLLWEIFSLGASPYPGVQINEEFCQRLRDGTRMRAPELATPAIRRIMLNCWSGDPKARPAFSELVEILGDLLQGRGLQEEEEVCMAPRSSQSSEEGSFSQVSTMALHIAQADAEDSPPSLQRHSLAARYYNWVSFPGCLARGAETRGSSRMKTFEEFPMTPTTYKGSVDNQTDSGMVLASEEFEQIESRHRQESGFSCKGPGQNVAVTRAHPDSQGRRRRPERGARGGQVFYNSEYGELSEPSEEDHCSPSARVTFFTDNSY

Vd [3] [L/kg]	AUC [5] [µg·h/mL]	half-life [7] [min]	clearance [8] [L/h/kg]	IC50 [9] [µM]	Compound	further results
1.1	1.14	54	0.9		CCOc1cccc2c1c(/C=C1\C(=O)NN=C1c1snnc1C)cn2C	IC50 [1]: 0.036 µM; IC50 [2]: > 3 µM; IC50 [4]: 0.016 µM; IC50 (Angiopoietin-1 receptor): > 10 µM; IC50 [6]: 0.463 µM
2.2	0.192	18	5.22		COc1cccc2c1c(/C=C1\C(=O)NN=C1c1snnc1C)cn2C	
				> 0.3	Cc1nnsc1C1=NNC(=O)/C1=C\c1c[nH]c2ccc(Cl)cc12	
				> 1	Cc1nnsc1C1=NNC(=O)/C1=C\c1c[nH]c2ccccc12	
0.23	3.6	36	0.276		Cn1cc(/C=C2\C(=O)NN=C2c2nccs2)c2c(F)cccc21	bioavailability [10]: 3%; Cmax [11]: 0.139 µg/mL; half-life [12]: 72 min; AUC [13]: 1.04 µg·h/mL
				> 0.3	Cc1nnsc1C1=NNC(=O)/C1=C\c1cn(C)c2ccc(C#N)cc12	
1.1		30	1.5		Cc1nnsc1C1=NNC(=O)/C1=C\c1cn(C)c2ccc(F)cc12	F (Rattus norvegicus [14]): 29%; Cmax [11]: 0.356 µg/mL; half-life [12]: 84 min; AUC (Rattus norvegicus [15]): 0.507 µg·h/mL; AUC (Rattus norvegicus [16]): 0.727 µg·h/mL
